Measurements: PubChem BioAssay AID1963860 (Molecular Pharmacology Branch, DTP, NCI, 2024)

Test system: CN0375-F725-PDC KRAS spheroid viability
Assay: Anticancer human tumor CN0375-F725-PDC patient-derived colon carcinoma cell line growth inhibition [KRAS2]
Details: spheroids with HUVEC and MSC; for viability, T/C: stronger effect = lower value; active = viability on the fitted dose curve at most 10% of control; inactive = the rest
Method in brief: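 Combination screen of spheroid viability in tumor-cell co-cultures with endothelial (HUVEC) and mesenchymal stem cell stroma. Each agent was tested in half-log dilutions, topping at clinical Cmax or at 10 microM without a known Cmax.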

[1] = curve of first compound, second compound 0.1 µM
[2] = curve of first compound, second compound 0.316 µM
[3] = curve of first compound, second compound 1 µM
[4] = curve of first compound, second compound 3.16 µM
[5] = curve of first compound, second compound 10 µM
[6] = second compound 0.1 µM, first compound 0.000316 µM
[7] = second compound 0.1 µM, first compound 0.001 µM
[8] = second compound 0.1 µM, first compound 0.00316 µM
[9] = second compound 0.1 µM, first compound 0.01 µM
[10] = second compound 0.1 µM, first compound 0.0316 µM
[11] = second compound 0.1 µM, first compound 0.1 µM
[12] = second compound 0.316 µM, first compound 0.000316 µM
[13] = second compound 0.316 µM, first compound 0.001 µM
[14] = second compound 0.316 µM, first compound 0.00316 µM
[15] = second compound 0.316 µM, first compound 0.01 µM
[16] = second compound 0.316 µM, first compound 0.0316 µM
[17] = second compound 0.316 µM, first compound 0.1 µM
[18] = second compound 1 µM, first compound 0.000316 µM
[19] = second compound 1 µM, first compound 0.001 µM
[20] = second compound 1 µM, first compound 0.00316 µM
[21] = second compound 1 µM, first compound 0.01 µM
[22] = second compound 1 µM, first compound 0.0316 µM
[23] = second compound 1 µM, first compound 0.1 µM
[24] = second compound 3.16 µM, first compound 0.000316 µM
[25] = second compound 3.16 µM, first compound 0.001 µM
[26] = second compound 3.16 µM, first compound 0.00316 µM
[27] = second compound 3.16 µM, first compound 0.01 µM
[28] = second compound 3.16 µM, first compound 0.0316 µM
[29] = second compound 3.16 µM, first compound 0.1 µM
[30] = second compound 10 µM, first compound 0.000316 µM
[31] = second compound 10 µM, first compound 0.001 µM
[32] = second compound 10 µM, first compound 0.00316 µM
[33] = second compound 10 µM, first compound 0.01 µM
[34] = second compound 10 µM, first compound 0.0316 µM
[35] = second compound 10 µM, first compound 0.1 µM
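Note: spheroids exposed to agents for 7 days.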

CC(=O)OC12COC1CC(O)C1(C)C(=O)C(O)C3=C(C)C(OC(=O)C(O)C(NC(=O)OC(C)(C)C)c4ccccc4)CC(O)(C(OC(=O)c4ccccc4)C21)C3(C)C (configuration not stated)
inactive: viability, T/C (compound 0.01 µM) 101% [middle of 5 runs] | viability, T/C (compound 0.0316 µM) 97.7% [middle of 5 runs] | viability, T/C (compound 0.1 µM) 89.3% [middle of 5 runs] | viability, T/C (compound 0.316 µM) 89% [middle of 5 runs] | viability, T/C (compound 1 µM) 83.2% [middle of 5 runs] | viability, T/C (compound 3.16 µM) 80.8% [middle of 5 runs]
> 3160 nM: IC50 (curve of compound)

CC(C)n1nc(-c2ccc3oc(N)nc3c2)c2c(N)ncnc21 + COc1cc2nc(C)nc(NC(C)c3cc(N)cc(C(F)(F)F)c3)c2cc1OC1CCOC1
inactive: viability, T/C [6] 101% | viability, T/C [7] 93.6% | viability, T/C [8] 78% | viability, T/C [9] 70.4% | viability, T/C [10] 54.5% | viability, T/C [11] 45.5% | viability, T/C [12] 95.1% | viability, T/C [13] 89.7% | viability, T/C [14] 77.6% | viability, T/C [15] 66% | viability, T/C [16] 54.2% | viability, T/C [17] 43.7% | viability, T/C [18] 90.5% | viability, T/C [19] 88.6% | viability, T/C [20] 76% | viability, T/C [21] 66.4% | viability, T/C [22] 50.2% | viability, T/C [23] 42.1% | viability, T/C [24] 85.2% | viability, T/C [25] 80.8% | viability, T/C [26] 72.9% | viability, T/C [27] 59% | viability, T/C [28] 48.5% | viability, T/C [29] 40.8% | viability, T/C [30] 13.7% | viability, T/C [31] 14.8% | viability, T/C [32] 25.4% | viability, T/C [33] 22% | viability, T/C [34] 18.1% | viability, T/C [35] 13.7%
36.5 nM: IC50 [3]
49 nM: IC50 [2]
59.1 nM: IC50 [1]
< 0.316 nM: IC50 [5]
25.9 nM: IC50 [4]

CC1COCCN1c1cc(-c2ccnn2C)c2ccnc(-c3ccn[nH]3)c2n1 (configuration not stated)
> 3160 nM: IC50 (curve of compound)
inactive: viability, T/C (compound 0.01 µM) 105% [middle of 5 runs] | viability, T/C (compound 0.0316 µM) 97.3% [middle of 5 runs] | viability, T/C (compound 0.1 µM) 90.8% [middle of 5 runs] | viability, T/C (compound 0.316 µM) 85.7% [middle of 5 runs] | viability, T/C (compound 1 µM) 72.1% [middle of 5 runs] | viability, T/C (compound 3.16 µM) 58.4% [middle of 5 runs]

CC(=O)OC12COC1CC(O)C1(C)C(=O)C(O)C3=C(C)C(OC(=O)C(O)C(NC(=O)OC(C)(C)C)c4ccccc4)CC(O)(C(OC(=O)c4ccccc4)C21)C3(C)C (configuration not stated) + C=CC(=O)N1CCN(c2nc(OCC3CCCN3C)nc3c2CCN(c2cccc4cccc(C)c24)C3)CC1CC#N
inactive: viability, T/C (second compound 0.0316 µM, first compound 0.01 µM) 99.3% | viability, T/C (second compound 0.0316 µM, first compound 0.0316 µM) 99.2% | viability, T/C (second compound 0.0316 µM, first compound 0.1 µM) 87.2% | viability, T/C (second compound 0.0316 µM, first compound 0.316 µM) 82.5% | viability, T/C (second compound 0.0316 µM, first compound 1 µM) 81.8% | viability, T/C (second compound 0.0316 µM, first compound 3.16 µM) 79.2% | viability, T/C [9] 104% | viability, T/C [10] 102% | viability, T/C [11] 86.3% | viability, T/C (second compound 0.1 µM, first compound 0.316 µM) 87% | viability, T/C (second compound 0.1 µM, first compound 1 µM) 79.5% | viability, T/C (second compound 0.1 µM, first compound 3.16 µM) 76.4% | viability, T/C [15] 100% | viability, T/C [16] 100% | viability, T/C [17] 87.3% | viability, T/C (second compound 0.316 µM, first compound 0.316 µM) 85.2% | viability, T/C (second compound 0.316 µM, first compound 1 µM) 79.3% | viability, T/C (second compound 0.316 µM, first compound 3.16 µM) 75.9% | viability, T/C [21] 96.7% | viability, T/C [22] 91.8% | viability, T/C [23] 91.6% | viability, T/C (second compound 1 µM, first compound 0.316 µM) 78.8% | viability, T/C (second compound 1 µM, first compound 1 µM) 78.6% | viability, T/C (second compound 1 µM, first compound 3.16 µM) 73.6% | viability, T/C [27] 96.2% | viability, T/C [28] 98.9% | viability, T/C [29] 93.7% | viability, T/C (second compound 3.16 µM, first compound 0.316 µM) 83.5% | viability, T/C (second compound 3.16 µM, first compound 1 µM) 88.3% | viability, T/C (second compound 3.16 µM, first compound 3.16 µM) 79%
> 3160 nM: IC50 (curve of first compound, second compound 0.0316 µM) | IC50 [1] | IC50 [2] | IC50 [3] | IC50 [4]

CN(C)C/C=C/C(=O)Nc1cc2c(Nc3ccc(F)c(Cl)c3)ncnc2cc1O[C@H]1CCOC1 + C=CC(=O)N1CCN(c2nc(=O)n(-c3c(C)ccnc3C(C)C)c3nc(-c4c(O)cccc4F)c(F)cc23)C(C)C1
> 100 nM: IC50 [1] | IC50 [2] | IC50 [3] | IC50 [4] | IC50 [5]
inactive: viability, T/C [6] 103% | viability, T/C [7] 93.5% | viability, T/C [8] 86.3% | viability, T/C [9] 83.5% | viability, T/C [10] 81.4% | viability, T/C [11] 76% | viability, T/C [12] 111% | viability, T/C [13] 106% | viability, T/C [14] 84.2% | viability, T/C [15] 81.4% | viability, T/C [16] 74.9% | viability, T/C [17] 74.9% | viability, T/C [18] 108% | viability, T/C [19] 106% | viability, T/C [20] 84.7% | viability, T/C [21] 87% | viability, T/C [22] 82.9% | viability, T/C [23] 81% | viability, T/C [24] 108% | viability, T/C [25] 109% | viability, T/C [26] 89.9% | viability, T/C [27] 82.4% | viability, T/C [28] 81.2% | viability, T/C [29] 75.5% | viability, T/C [30] 103% | viability, T/C [31] 107% | viability, T/C [32] 87.9% | viability, T/C [33] 77.7% | viability, T/C [34] 78.6% | viability, T/C [35] 76.7%

COC(=O)c1ccc2c(C(=Nc3ccc(N(C)C(=O)CN4CCN(C)CC4)cc3)c3ccccc3)c(O)[nH]c2c1
inactive: viability, T/C (compound 0.0316 µM) 103% [middle of 5 runs] | viability, T/C (compound 0.1 µM) 96.6% [middle of 5 runs] | viability, T/C (compound 0.316 µM) 93.9% [middle of 5 runs] | viability, T/C (compound 1 µM) 91.9% [middle of 5 runs]
active: viability, T/C (compound 10 µM) 0.42% [middle of 5 runs]
3.14 µM [middle of 5 runs]: IC50 (curve of compound)

Cn1nccc1Nc1nccc(-c2cc3c(s2)C(C)(C)N(CCN2CCOCC2)C3=O)n1
inactive: viability, T/C (compound 0.0316 µM) 104% [middle of 5 runs] | viability, T/C (compound 0.1 µM) 90% [middle of 5 runs] | viability, T/C (compound 0.316 µM) 77.5% [middle of 5 runs] | viability, T/C (compound 1 µM) 72.3% [middle of 5 runs] | viability, T/C (compound 3.16 µM) 56.5% [middle of 5 runs] | viability, T/C (compound 10 µM) 44.6% [middle of 5 runs]
5.56 µM [middle of 5 runs]: IC50 (curve of compound)
